The values below come from US8314112B2 (Novartis AG, priority 2008, dated 2012).

Each structure is given as a SMILES string.

This assay concerns the target T1, human ALK5 (kinase domain, ALK5 T204D) (Homo sapiens, UniProt P36897, T204D).
T1 construct: The kinase domain of human ALK5 (amino acids 200-503); made in house; host or cells: insect cells (baculovirus)
T1 sequence (P36897 200-503 T204D): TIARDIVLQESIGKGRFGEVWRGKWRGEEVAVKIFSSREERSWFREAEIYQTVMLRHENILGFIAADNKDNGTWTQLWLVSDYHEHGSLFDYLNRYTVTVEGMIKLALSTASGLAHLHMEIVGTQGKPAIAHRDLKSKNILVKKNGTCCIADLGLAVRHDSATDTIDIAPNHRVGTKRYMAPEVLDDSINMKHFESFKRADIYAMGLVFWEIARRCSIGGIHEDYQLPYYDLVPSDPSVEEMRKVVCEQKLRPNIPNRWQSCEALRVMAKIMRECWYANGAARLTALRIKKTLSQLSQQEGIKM
In words: ALK5 kinase assay ([33P] phosphate incorporation into casein). Conditions: casein substrate, 1 μM unlabelled ATP. The assay is classed as biochemical. A digest of the protocol:
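His-tagged human ALK5 T204D kinase domain (aa 200-503, constitutively active, baculovirus/insect-cell expressed), 50 ng/well, preincubated 10 min with compound and dephosphorylated casein (200 μg/well) in Tris pH 7.4/MgCl2/MnCl2. Reaction started with 1 μM ATP plus [33P]ATP, 50 min at room temperature, EDTA-stopped; casein-bound 33P counted by scintillation after filter capture.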
The term IC50 denotes the point on the concentration scale where inhibition reaches its midpoint. A higher IC50 goes with weaker potency in that assay. Molecule `CCNC(=O)c1cncc(-c2nc(-c3cccc(C)n3)nc3[nH]ccc23)c1` [Example 11, N-Ethyl-5-[2-(6-methyl-pyridin-2-yl)-7H-pyrrolo[2,3-d]pyrimidin-4-yl]-nicotinamide] registered an IC50 of 367 nM. This counts as sub-micromolar.
`Cc1cccc(-c2nc(-c3cncc(-c4cccc(CN(C)C)c4)c3)c3cc[nH]c3n2)n1` [Example 37, Dimethyl-(3-{5-[2-(6-methyl-pyridin-2-yl)-7H-pyrrolo[2,3-d]pyrimidin-4-yl]-pyridin-3-yl}-benzyl)-amine] registered a 50% inhibitory concentration (IC50) of 33 nM.
For the molecule `Cc1cccc(-c2cc(-c3cncc(CO)c3)c3cc[nH]c3n2)n1` [Example 109, {5-[6-(6-Methyl-pyridin-2-yl)-1H-pyrrolo[2,3-b]pyridin-4-yl]-pyridin-3-yl}-methanol], 812 nM corresponded to half-maximal inhibition (IC50). Against the preceding molecule, the IC50 is about 25-fold higher.
In turn, `Cc1cccc(-c2cc(-c3cncc(-c4cnn(C)c4)c3)c3cc[nH]c3n2)n1` [Example 123, 4-[5-(1-Methyl-1H-pyrazol-4-yl)-pyridin-3-yl]-6-(6-methyl-pyridin-2-yl)-1H-pyrrolo[2,3-b]pyridine] yielded an IC50 of 4.4 nM.
For `c1ccc(-c2nc(-c3cccnc3)c3cc[nH]c3n2)nc1` [Example 1, 4-Pyridin-3-yl-2-pyridin-2-yl-7H-pyrrolo[2,3-d]pyrimidine], the half-inhibitory concentration (IC50) came out at 1180 nM. This IC50 is about 270-fold higher than that of the molecule before.
`Cc1cccc(-c2cc(-c3cncc(-c4ccc(CNCC(=O)O)cc4)c3)c3cc[nH]c3n2)n1` [Example 136, (4-{5-[6-(6-Methyl-pyridin-2-yl)-1H-pyrrolo[2,3-b]pyridin-4-yl]-pyridin-3-yl}-benzylamino)-acetic acid]: the IC50 stood at 10 nM.
`Cc1cccc(-c2nc(-c3cncc(-c4cccc(CN)c4)c3)c3cc[nH]c3n2)n1` [Example 59, 3-{5-[2-(6-Methyl-pyridin-2-yl)-7H-pyrrolo[2,3-d]pyrimidin-4-yl]-pyridin-3-yl}-benzylamine]: the IC50 came out at 30 nM.
In the case of `CC(=O)N1CC=C(c2cncc(-c3cc(-c4cccc(C)n4)nc4[nH]ccc34)c2)CC1` [Example 121, 1-{5-[6-(6-Methyl-pyridin-2-yl)-1H-pyrrolo[2,3-b]pyridin-4-yl]-3′,6′-dihydro-2′H-[3,4′]bipyridinyl-1′-yl}-ethanone], 65 nM corresponded to half-maximal inhibition (IC50).
In turn, `CNCc1cccc(-c2cncc(-c3nc(-c4cccc(C)n4)nc4[nH]ccc34)c2)c1` [Example 36, Methyl-(3-{5-[2-(6-methyl-pyridin-2-yl)-7H-pyrrolo[2,3-d]pyrimidin-4-yl]-pyridin-3-yl}-benzyl)-amine] had a half-inhibitory concentration (IC50) of 8 nM.
`CN1CCN(Cc2ccc(-c3cncc(-c4nc(-c5ccccn5)nc5[nH]ccc45)c3)cc2)CC1` [Example 43, 4-{5-[4-(4-Methyl-piperazin-1-ylmethyl)-phenyl]-pyridin-3-yl}-2-pyridin-2-yl-7H-pyrrolo[2,3-d]pyrimidine] registered a half-inhibitory concentration (IC50) of 6 nM.
On to `COc1cccc(-c2cncc(-c3cc(-c4cccc(C)n4)nc4[nH]ccc34)c2)c1` [Example 60, 4-[5-(3-Methoxy-phenyl)-pyridin-3-yl]-6-(6-methyl-pyridin-2-yl)-1H-pyrrolo[2,3-b]pyridine], for which the concentration for half-maximal inhibition (IC50) was 96 nM. Compared with the last molecule, the IC50 is about 16-fold higher.
Next, `Cc1cccc(-c2nc(-c3cncc(-c4ccc(CN5CCN(C)CC5)cc4)c3)c3cc[nH]c3n2)n1` [Example 20, 4-{5-[4-(4-Methyl-piperazin-1-ylmethyl)-phenyl]-pyridin-3-yl}-2-(6-methyl-pyridin-2-yl)-7H-pyrrolo[2,3-d]pyrimidine]: 45 nM.
As to `CC(=O)NCCC(=O)Nc1cncc(-c2nc(-c3cccc(C)n3)nc3[nH]ccc23)c1` [Example 53, 3-Acetylamino-N-{5-[2-(6-methyl-pyridin-2-yl)-7H-pyrrolo[2,3-d]pyrimidin-4-yl]-pyridin-3-yl}-propionamide], half-maximal inhibition (IC50) required 570 nM.
Next, `Cc1cccc(-c2nc(-c3cncc(-c4ccc(CN5CC[C@H](N(C)C)C5)cc4)c3)c3cc[nH]c3n2)n1` [Example 100, Dimethyl-[(S)-1-(4-{5-[2-(6-methyl-pyridin-2-yl)-7H-pyrrolo[2,3-d]pyrimidin-4-yl]-pyridin-3-yl}-benzyl)-pyrrolidin-3-yl]-amine]: 8 nM; `Cc1cccc(-c2nc(-c3cncc(N4CCCCC4)c3)c3cc[nH]c3n2)n1` [Example 48, 5′-[2-(6-Methyl-pyridin-2-yl)-7H-pyrrolo[2,3-d]pyrimidin-4-yl]-3,4,5,6-tetrahydro-2H-[1,3′]bipyridinyl]: 1340 nM.
As for `CNCc1ccc(-c2cncc(-c3nc(-c4cccc(C)n4)nc4[nH]ccc34)c2)cc1` [Example 39, Methyl-(4-{5-[2-(6-methyl-pyridin-2-yl)-7H-pyrrolo[2,3-d]pyrimidin-4-yl]-pyridin-3-yl}-benzyl)-amine], the 50% inhibitory concentration (IC50) was determined as 6 nM.
Turning to `Cc1cccc(-c2cc(-c3cncc(-c4cccc(CNCC(=O)O)c4)c3)c3cc[nH]c3n2)n1` [Example 130, (3-{5-[6-(6-Methyl-pyridin-2-yl)-1H-pyrrolo[2,3-b]pyridin-4-yl]-pyridin-3-yl}-benzylamino)-acetic acid], the IC50 was 11 nM.
Under `Cc1cccc(-c2cc(-c3cncc(-c4cccc(CC(=O)O)c4)c3)c3cc[nH]c3n2)n1` [Example 156, (3-{5-[6-(6-Methyl-pyridin-2-yl)-1H-pyrrolo[2,3-b]pyridin-4-yl]-pyridin-3-yl}-phenyl)-acetic acid] stands 11 nM; under `Cc1cccc(-c2cc(-c3cncc(-c4ccc(CN5CCC(F)(F)C5)cc4)c3)c3cc[nH]c3n2)n1` [Example 134, 4-{5-[4-(3,3-Difluoro-pyrrolidin-1-ylmethyl)-phenyl]-pyridin-3-yl}-6-(6-methyl-pyridin-2-yl)-1H-pyrrolo[2,3-b]pyridine], 39 nM.
As for `Cc1cccc(-c2cc(-c3cccnc3)c3cc[nH]c3n2)n1` [Example 46, 6-(6-methyl-pyridin-2-yl)-4-pyridin-3-yl-1H-pyrrolo[2,3-b]pyridine], the IC50 worked out at 264 nM.
`Cc1cccc(-c2nc(-c3cncc4ccccc34)c3cc[nH]c3n2)n1` [Example 29, 4-[2-(6-Methyl-pyridin-2-yl)-7H-pyrrolo[2,3-d]pyrimidin-4-yl]-isoquinoline] came in with a half-inhibitory concentration (IC50) of 11 nM.
`Cc1cccc(-c2cc(-c3cncc(N4CCN(C)CC4)c3)c3cc[nH]c3n2)n1` [Example 57, 4-[5-(4-Methyl-piperazin-1-yl)-pyridin-3-yl]-6-(6-methyl-pyridin-2-yl)-1H-pyrrolo[2,3-b]pyridine] had an IC50 of 271 nM.
The molecule `COC(=O)CNCc1cccc(-c2cncc(-c3nc(-c4cccc(C)n4)nc4[nH]ccc34)c2)c1` [Example 146, (3-{5-[2-(6-Methyl-pyridin-2-yl)-7H-pyrrolo[2,3-d]pyrimidin-4-yl]-pyridin-3-yl}-benzylamino)-acetic acid methyl ester] came in with a half-maximal inhibitory concentration (IC50) of 27 nM.
The molecule `Cc1cccc(-c2cc(-c3cncc(-c4ccc(C(C)(C)N(C)C)cc4)c3)c3cc[nH]c3n2)n1` [Example 160, Dimethyl-[1-methyl-1-(4-{5-[6-(6-methyl-pyridin-2-yl)-1H-pyrrolo[2,3-b]pyridin-4-yl]-pyridin-3-yl}-phenyl)-ethyl]-amine] came in with an IC50 of 5.9 nM.
As to `Cc1cccc(-c2nc(-c3cncc(-c4cccc(C5CNCCN5)c4)c3)c3cc[nH]c3n2)n1` (centres unmarked) [Example 99, 2-(6-Methyl-pyridin-2-yl)-4-[5-(3-piperazin-2-yl-phenyl)-pyridin-3-yl]-7H-pyrrolo[2,3-d]pyrimidine], the IC50 was 14 nM.
In turn, `Cc1cccc(-c2cc(-c3cncc(C#CCN4CCC(F)(F)C4)c3)c3cc[nH]c3n2)n1` [Example 155, 4-{5-[3-(3,3-Difluoro-pyrrolidin-1-yl)-prop-1-ynyl]-pyridin-3-yl}-6-(6-methyl-pyridin-2-yl)-1H-pyrrolo[2,3-b]pyridine] showed an IC50 of 48 nM.
With `Cc1cccc(-c2nc(-c3cncc(-c4ccccc4F)c3)c3cc[nH]c3n2)n1` [Example 24, 4-[5-(2-Fluoro-phenyl)-pyridin-3-yl]-2-(6-methyl-pyridin-2-yl)-7H-pyrrolo[2,3-d]pyrimidine], the IC50 was found to be 34 nM. The IC50 values of the last two molecules are within 1.5-fold of each other.
With `Cc1cccc(-c2cc(-c3cncc(-c4ccc(CN(C)C)cn4)c3)c3cc[nH]c3n2)n1` [Example 125, Dimethyl-{5′-[6-(6-methyl-pyridin-2-yl)-1H-pyrrolo[2,3-b]pyridin-4-yl]-[2,3′]-5-ylmethyl}-amine], the half-maximal inhibitory concentration (IC50) stood at 8 nM.
In turn, `Cc1cncc(-c2nc(-c3cccc(C)n3)nc3[nH]ccc23)c1` [Example 96, 4-(5-Methyl-pyridin-3-yl)-2-(6-methyl-pyridin-2-yl)-7H-pyrrolo[2,3-d]pyrimidine] returned an IC50 of 751 nM.
For `Cc1cccc(-c2nc(-c3cncc(C(=O)NCCN(C)C)c3)c3cc[nH]c3n2)n1` [Example 12, N-(2-Dimethylamino-ethyl)-5-[2-(6-methyl-pyridin-2-yl)-7H-pyrrolo[2,3-d]pyrimidin-4-yl]-nicotinamide], the half-inhibitory concentration (IC50) worked out at 345 nM.
As to `Cc1cccc(-c2nc(-c3cccnc3)c3cc[nH]c3n2)n1` [Example 2, 2-(6-methyl-pyridin-2-yl)-4-pyridin-3-yl-7H-pyrrolo[2,3-d]pyrimidine], the IC50 was 380 nM. The IC50 values of the last two molecules are within 1.5-fold of each other.
Next, `Cc1cccc(-c2nc(-c3cncc(-c4ccc(CN(C)C)cn4)c3)c3cc[nH]c3n2)n1` [Example 124, Dimethyl-{5′-[2-(6-methyl-pyridin-2-yl)-7H-pyrrolo[2,3-d]pyrimidin-4-yl]-[2,3′]bipyridinyl-5-ylmethyl}-amine]: 11 nM.
